Measurements reported in patent publication US9410947B2, “Fluorescent dyes and related methods” (University of Washington through its Center for …, priority 2012, dated 2016).
“Also recorded” adds a separate entry of the source.

Experiments:
Prorocentrum minimum = assay: Flow cytometric analysis of DNA staining in alga; assay type: cell-based; settings: 1% DMSO
Description: In another aspect, this example describes a set of experiments to investigate DANPY-1 dye for use in flow cytometric analysis of DNA. The alga Prorocentrum minimum was selected for these studies. Several controls were run to: (a) ensure that cell integrity was maintained, (b) assess the contribution of unbound DANPY-1 to fluorescent background signals and (c) determine a dye concentration and the intensity of the fluorescent signal when the target DNA is fully saturated with bound dye. The DANPY-1 concentrations that were tested in these preliminary experiments ranged from 7.1 μM to 228 μM. All of the flow cytometric work was performed on an Accuri C6 flow cytometer (BD Scientific, Ann Arbor, Mich.). The excitation wavelength for the FL1, FL2, and FL3 detectors (or channels) is 488 nm and the FL4 laser excites at a wavelength of 640 nm. The fluorescent wavelengths that each channel detects are as follows: FL1 530/30, FL2 585/40, FL3 670 LP and FL4 675/25. These experiments are summarized below (data not shown): […]

Solubility in solvents = assay type: physicochemical
[1] = in chloroform, extrapolated to zero frequency; cited from earlier work
salmon sperm DNA = assay: Photometric (colorimetric) titration of dye solutions with DNA, Scatchard / n-K fit; assay type: binding
Protocol: Dye/DNA binding was assessed. The binding constant and number of dye molecules bound per base pair were assessed by means of photometric titrations (Peacocke, A. R.; Skerrett, J. N. H., Trans. Faraday Soc. 1956, 52, 261, Angerer, L. M.; Moudrianakis, E. N., J. Mol. Bio. 1972, 63, 505-521) of dye solutions with commercially available salmon sperm DNA (Sigma Aldrich, MW 50 kD to 100 kD) in 10 mM TE buffer at pH 7.2. Experiments were run using a temperature-controlled Ocean Optics diode array spectrophotometer at 25.0° C., with 2.5 mL of dye solution at a concentration sufficient for an initial optical density near 0.75, adding 1.5 mM DNA solution in 30 μL aliquots.
This example describes affinity of DANPY-1 to DNA. […] These experiments were analyzed using the Scatchard equation (Scatchard, G., Ann. N.Y. Acad. Sci. 1949, 51, 662-672.) […]
A titration methodology was also used. Dyes were evaluated for their DNA-binding properties by means of colorimetric titrations in buffered aqueous solution (1×TE buffer titrated to pH 7.2 with HCl). […] After allowing the solution to mix for about one minute, the stirrer was stopped and a spectrum was recorded. If the initial absorbance of the dye was ≧1, the dye solution was diluted with the appropriate solvent (TE buffer, methanol, or butanol) until the initial absorbance was <1. […] The reduced absorbance change […]

dsDNA = assay: QCM-D binding study, dsDNA layer; set-up: species or system salmon; settings: pH 7.2 1×TE buffer, 298 K, 0.3 mL/min, rinse ten minutes
Description: (§1) In yet another aspect, the present disclosure includes methods for quantifying nucleic acid molecules in a sample. For example, the present disclosure can include a method of determining a quantity of a nucleic acid molecule in a sample using the Quartz Crystal Microbalance with Dissipation Monitoring (QCM-D) method. QCM-D can be used to determine the formation of films (e.g., nm in thickness). For example, films may be formed on a surface from proteins, polymers, surfactants and cells. QCM-D can detect films formed in liquid and may be used to determine binding kinetics of, for example, cationic dyes (e.g., ethidium bromide, DANPY-1 and/or DAST). For example, a Q-Sense instrument (e.g., a Q-Sense E4 instrument, Biolin Scientific AB, Stockholm) can be used for QCM-D using a dedicated set of QCM sensors (e.g., SiO2-coated). The procedures of cleaning, deposition, mass monitoring, and preparing nucleic acid for QCM-D are known. (R. J. Rawle, C. R. D. Selassie, M. S. Johal, Langmuir 2007, 23, 9563-9566). Data can be output as kinetics that can include structural changes and mass changes. The crystals can be, for example, coated with a polyethylene imine (PEI) layer to enable binding of anionic nucleic acids. The crystals can be, for example, coated with a polymer polystyrene sulfonate (PSS), that only undergoes loose electrostatic binding. […]

[2] = QCM-D binding study, bare SiO2 control; settings: pH 7.2 1×TE buffer, 298 K
Description: as §1

ssDNA = assay: QCM-D binding study, ssDNA layer; set-up: species or system salmon; settings: pH 7.2 1×TE buffer, 298 K, 0.3 mL/min, rinse ten minutes
Description: as §1

[3] = QCM-D binding study, PSS control polymer; settings: pH 7.2 1×TE buffer, 298 K
Description: as §1

[4] = QCM-D binding study, PEI layer
Description: The three nucleic acids (e.g., single-stranded DNA (ssDNA), double-stranded DNA (dsDNA), and transfer RNA (tRNA)) used in this example are anionic. The crystals were coated with a polyethylene imine (PEI) layer to create a surface and enable binding of the nucleic acids. […] Polystyrene sulfonate (PSS) was used as a control polymer. As controls, PSS which can only undergo loose electrostatic binding, and bare SiO2 were used. Any materials used for coating were allowed to deposit until a stable mass was reached (e.g., for five minutes) followed by five minutes of rinsing with buffer between each layer; (1) PEI or PSS, (2) nucleic acid and (3) the dye. After deposition, the film was rinsed with buffer for ten minutes. If the adsorbed mass returned to near the form immediately prior to the addition of the dye, then remained stable, the binding was characterized as reversible. Binding was characterized as irreversible if the mass remained constant after rinsing or leveled off at a substantially higher value than before the dye was added.

tRNA = assay: QCM-D binding study, tRNA layer; settings: pH 7.2 1×TE buffer, 298 K, 0.3 mL/min, rinse ten minutes
Description: as §1

For CC(=O)[O-].CN(C)c1ccc2cc(-c3cc[n+](C)cc3)ccc2c1 [DANPY-1, dimethylaminonaphthylpyridinium], the cell concentration (Prorocentrum minimum; 7.1 μM dye, 10 minute exposure) was 1.02e5 cells/mL, the “impact on cell integrity” value (Prorocentrum minimum; 7.1 μM dye, 10 minute exposure) was “no impact on cell integrity” and the “mean fluorescent intensity FL-1 channel” value (Prorocentrum minimum; 7.1 μM dye, FL1 530/30, ex 488 nm) was 6032. For the same molecule, the “mean fluorescent intensity FL-2 channel” value (Prorocentrum minimum; 7.1 μM dye, FL2 585/40, ex 488 nm) was 40801, the cell concentration (Prorocentrum minimum; 57 μM dye, 10 minute exposure) was 9.5e4 cells/mL and the “impact on cell integrity” value (Prorocentrum minimum; 57 μM dye, 10 minute exposure) was “no impact on cell integrity”. For the same molecule, the “mean FU intensity FL-1 channel” value (Prorocentrum minimum; 57 μM dye, FL1 530/30, ex 488 nm) was 17951 FU, the “mean FU intensity FL-2 channel” value (Prorocentrum minimum; 57 μM dye, FL2 585/40, ex 488 nm) was 167481 FU and the cell concentration (Prorocentrum minimum; 228 μM dye, 10 min exposure) was 8.1e4 cells/mL. The “impact on cell integrity” value (Prorocentrum minimum; 228 μM dye, 10 min exposure) was “some impact on cell integrity”, the “mean fluorescent intensity FL-1 channel” value (Prorocentrum minimum; 228 μM dye, FL1 530/30, ex 488 nm) was 26131 and the “mean fluorescent intensity FL-2 channel” value (Prorocentrum minimum; 228 μM dye, FL2 585/40, ex 488 nm) was 412988. The “solubility in standard spin-coating solvents” value (Solubility in solvents; TCE and cyclopentanone) was “poorly soluble”, the solubility in butanol (Solubility in solvents; butanol) was “poorly soluble” and the “solubility in lower alcohols” value (Solubility in solvents; methanol, ethanol, and n-propanol) was “highly soluble”.

In the case of CCN(CCO)c1ccc(N=Nc2ccc([N+](=O)[O-])cc2)cc1 [DR1, Disperse Red 1], the “static hyperpolarizability βzzz(0)” value [1] is listed as 54±5 10^−30 esu, the solubility in water (Solubility in solvents; water) is listed as “not sufficiently soluble” and the “change in the absorbance peak on titration with DNA” value (salmon sperm DNA; 1:1 TE buffer and ethanol) is listed as “no substantial change in the absorbance peak”.

In the case of “trans-4-[4-(Dimethylamino)styryl]-1-methylpyridinium toluenesulfonate [DAST]”, the “QCM-D binding to dsDNA” value (dsDNA) is reported as “did not interact strongly and None”, the “QCM-D binding to SiO2” value [2] is reported as “Reversible” and the “QCM-D binding to ssDNA” value (ssDNA) is reported as “interacted strongly; also recorded: Irreversible”. The “QCM-D binding to PSS” value [3] was “interacted strongly; also recorded: Partially”, the “QCM-D binding to PEI layer” value [4] was “did not bind” and the “QCM-D binding to tRNA” value (tRNA) was “did not interact strongly; also recorded: Reversible”. The “shift in absorbance maximum upon addition of DNA” value (salmon sperm DNA; TE buffer) was “exhibited a shift in absorbance maximum”.
